From the NIST ThermoML archive (doi:10.1016/j.tca.2012.06.011)

Test: xn = mol fraction of the nth substance listed
Details: 101 kPa, Liquid; for viscosity: Capillary tube (Ostwald / Ubbelohde) method; for mass density: Vibrating tube method

CN1CCNCC1 [N-methylpiperazine] + C1C[C@@H]2[C@H]3CC[C@H](C3)[C@@H]2C1
Details	mass density, 298.15 K [kg/m3]	mass density, 303.15 K [kg/m3]	mass density, 308.15 K [kg/m3]	mass density, 313.15 K [kg/m3]	mass density, 323.15 K [kg/m3]	viscosity, 298.15 K [mPa·s]	viscosity, 303.15 K [mPa·s]	viscosity, 308.15 K [mPa·s]	viscosity, 313.15 K [mPa·s]	viscosity, 323.15 K [mPa·s]
x1 = 0.1337	925.63	921.65	917.65	913.66	905.68	2.432	2.214	2.021	1.844	1.574
x1 = 0.2543	920.97	916.91	912.83	908.76	900.62	2.247	2.051	1.868	1.694	1.452
x1 = 0.3678	916.92	912.79	908.63	904.48	896.19	2.125	1.925	1.752	1.583	1.351
x1 = 0.4768	913.25	909.05	904.83	900.62	892.2	2.016	1.822	1.655	1.492	1.281
x1 = 0.577	910.05	905.8	901.53	897.26	888.74	1.943	1.756	1.583	1.435	1.237
x1 = 0.672	907.32	903.04	898.72	894.4	885.79	1.921	1.708	1.545	1.399	1.195
x1 = 0.76	904.59	900.27	895.93	891.58	882.9	1.893	1.681	1.512	1.362	1.162
x1 = 0.8407	902.15	897.92	893.59	889.24	880.55	1.894	1.656	1.502	1.35	1.154
x1 = 0.9242	900.27	895.92	891.51	887.11	878.34	1.877	1.632	1.467	1.318	1.116
x1 = 1	899.28	894.9	890.5	886.07	877.28	1.854	1.583	1.409	1.258	1.064
